Patent publication US20190328691A1, “ANTIBIOTIC THERAPY” (Boulos & Cooper Pharmaceuticals Pty Ltd, priority 2015, published 2019)

Columns and labels:
MRSA strains = conditions: cited from earlier work
[1] = test system: Staphylococcus aureus (ATCC 29213); experiment: Checkerboard combination / MIC assay with S. aureus ATCC 29213; format: cell-based
Summary of the method: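 CLSI broth microdilution checkerboard in CAMHB, final inoculum 5×10^5 CFU/mL, 2% DMSO. Ramizol or Chlopam (11-point 2-fold) crossed with commercial antibiotics (7-point), each starting at 4× MIC; synergy assessed by FIC index (sum of MIC-in-combination/MIC-alone ratios; ≤0.5 synergy, >4 antagonism).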

[2] = test system: Staphylococcus aureus (BAA-1717); experiment: Checkerboard combination / MIC assay with S. aureus BAA-1717 (MRSA); format: cell-based; conditions: for Effect of individual antibiotic combinations: S. aureus BAA-1717
Summary of the method: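 CLSI broth microdilution checkerboard in CAMHB (5×10^5 CFU/mL, 2% DMSO final). Ramizol or Chlopam was tested in 11-point two-fold series against 7-point antibiotic titrations, starting at 4× MIC.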

For `CN[C@H](CC(C)C)C(=O)N[C@H]1C(=O)N[C@@H](CC(N)=O)C(=O)N[C@H]2C(=O)N[C@H]3C(=O)N[C@H](C(=O)N[C@H](C(=O)O)c4cc(O)cc(O)c4-c4cc3ccc4O)[C@H](O)c3ccc(c(Cl)c3)Oc3cc2cc(c3O[C@@H]2O[C@H](CO)[C@@H](O)[C@H](O)[C@H]2O[C@H]2C[C@](C)(N)[C@H](O)[C@H](C)O2)Oc2ccc(cc2Cl)[C@H]1O` [Vancomycin], the MIC (MRSA strains; MRSA strains fully resistant to vancomycin) is listed as ≥ 32 µg/mL, the “minimum inhibitory concentration [MIC]” value (MRSA strains; MRSA strains with decreased susceptibility to vancomycin) is listed as 4 to 8 µg/mL and the “FICI of combination with Chlopam” value ([1]; Chlopam 0.003906 μg/mL + labelled antibiotic at MIC of same cell, S. aureus ATCC 29213) is listed as 1.0. For the same molecule, the “MIC of antibiotic in combination with Chlopam” value (shortened to “MIC … with Chlopam”) ([1]; Chlopam 0.003906 μg/mL, S. aureus ATCC 29213) was 1 µg/mL, the “FICI of combination with Chlopam” value ([1]; Chlopam 0.0078125 μg/mL + labelled antibiotic at MIC of same cell, S. aureus ATCC 29213) was 1.0 and the “MIC … with Chlopam” value ([1]; Chlopam 0.0078125 μg/mL, S. aureus ATCC 29213) was 1 µg/mL. The “FICI of combination with Chlopam” value ([1]; Chlopam 0.015625 μg/mL + labelled antibiotic at MIC of same cell, S. aureus ATCC 29213) was 1.0, the “MIC … with Chlopam” value ([1]; Chlopam 0.015625 μg/mL, S. aureus ATCC 29213) was 1 µg/mL and the “FICI of combination with Chlopam” value ([1]; Chlopam 0.125 μg/mL + labelled antibiotic at MIC of same line, S. aureus ATCC 29213) was 0.8. The “MIC … with Chlopam” value ([1]; Chlopam 0.125 μg/mL, S. aureus ATCC 29213) was 0.5 µg/mL, the “FICI of combination with Chlopam” value ([1]; Chlopam 0.25 μg/mL + labelled antibiotic at MIC of same cell, S. aureus ATCC 29213) was 1.0 and the “MIC … with Chlopam” value ([1]; Chlopam 0.25 μg/mL, S. aureus ATCC 29213) was 0.5 µg/mL. The “Effect of individual antibiotic combinations” value ([1]; Chlopam and Vancomycin: 0.003901 and 1, 0.0078125 and 1, 0.015625 and 1, 0.125 and 0.5, 0.25 and 0.5 μg/mL, S. aureus ATCC 29213) was “additive effect”, the “FICI of combination with Ramizol” value ([1]; Ramizol 0.015625 μg/mL + labelled antibiotic at MIC of same cell, S. aureus ATCC 29213) was 1.0 and the “MIC of antibiotic in combination with Ramizol” value (from here on “MIC … with Ramizol”) ([1]; Ramizol 0.015625 μg/mL, S. aureus ATCC 29213) was 1 µg/mL. The “FICI of combination with Ramizol” value ([1]; Ramizol 0.03125 μg/mL + labelled antibiotic at MIC of same cell, S. aureus ATCC 29213) was 1.0, the “MIC … with Ramizol” value ([1]; Ramizol 0.03125 μg/mL, S. aureus ATCC 29213) was 1 µg/mL and the “FICI of combination with Ramizol” value ([1]; Ramizol 0.0625 μg/mL + labelled antibiotic at MIC of same cell, S. aureus ATCC 29213) was 1.0. The “MIC … with Ramizol” value ([1]; Ramizol 0.0625 μg/mL, S. aureus ATCC 29213) was 1 µg/mL, the “FICI of combination with Ramizol” value ([1]; Ramizol 0.125 μg/mL + labelled antibiotic at MIC of same cell, S. aureus ATCC 29213) was 1.0 and the “MIC … with Ramizol” value ([1]; Ramizol 0.125 μg/mL, S. aureus ATCC 29213) was 1 µg/mL. The “Effect of individual antibiotic combinations” value ([1]; Ramizol and Vancomycin: 0.015625 and 1, 0.03125 and 1, 0.0625 and 1, 0.125 and 1 μg/mL, S. aureus ATCC 29213) was “additive effect”, the MIC ([1]; Staphylococcus aureus, ATCC29213, read-out: MIC of antibiotic alone) was 1 µg/mL and the “MIC of antibiotic alone” value ([1]; Table 7, checkerboard series with Ramizol, S. aureus ATCC 29213) was 1 µg/mL. For the same molecule, the “Effect of the combinations with Chlopam (by mean FICI)” value ([1]; labelled antibiotic + Chlopam, S. aureus ATCC 29213) was “additive effect”, the “mean FICI of combination with Chlopam” value ([1]; labelled antibiotic + Chlopam, mean of all pairwise combinations, S. aureus ATCC 29213) was 1.0 and the “mean FICI of combination with Ramizol” value ([1]; labelled antibiotic + Ramizol, mean of all pairwise combinations, S. aureus ATCC 29213) was 1.2. The “FICI of combination with Chlopam” value ([2]; Chlopam 0.001953 μg/mL + labelled antibiotic at MIC of same cell, S. aureus ATCC BAA-1717) was 1.0, the “MIC … with Chlopam” value ([2]; Chlopam 0.001953 μg/mL, S. aureus ATCC BAA-1717) was 1 µg/mL and the “FICI of combination with Chlopam” value ([2]; Chlopam 0.003906 μg/mL + labelled antibiotic at MIC of same cell, S. aureus ATCC BAA-1717) was 1.0. For the same molecule, the “MIC … with Chlopam” value ([2]; Chlopam 0.003906 μg/mL, S. aureus ATCC BAA-1717) was 1 µg/mL, the “FICI of combination with Chlopam” value ([2]; Chlopam 0.0078125 μg/mL + labelled antibiotic at MIC of same cell, S. aureus ATCC BAA-1717) was 1.0 and the “MIC … with Chlopam” value ([2]; Chlopam 0.0078125 μg/mL, S. aureus ATCC BAA-1717) was 1 µg/mL. For the same molecule, the “FICI of combination with Chlopam” value ([2]; Chlopam 0.015625 μg/mL + labelled antibiotic at MIC of same cell, S. aureus ATCC BAA-1717) was 1.0, the “MIC … with Chlopam” value ([2]; Chlopam 0.015625 μg/mL, S. aureus ATCC BAA-1717) was 1 µg/mL and the “FICI of combination with Chlopam” value ([2]; Chlopam 0.5 μg/mL + labelled antibiotic at MIC of same line, S. aureus ATCC BAA-1717) was 1.0. The “MIC … with Chlopam” value ([2]; Chlopam 0.5 μg/mL, S. aureus ATCC BAA-1717) was 0.031 µg/mL, the “Effect of individual antibiotic combinations” value ([2]; Chlopam and Vancomycin: 0.001953 and 1, 0.003901 and 1, 0.0078125 and 1, 0.015625 and 1 μg/mL) was “additive effect” and the “FICI of combination with Ramizol” value ([2]; Ramizol 0.015625 μg/mL + labelled antibiotic at MIC of same cell, S. aureus ATCC BAA-1717) was 1.0. For the same molecule, the “MIC … with Ramizol” value ([2]; Ramizol 0.015625 μg/mL, S. aureus ATCC BAA-1717) was 1 µg/mL, the “FICI of combination with Ramizol” value ([2]; Ramizol 0.03125 μg/mL + labelled antibiotic at MIC of same cell, S. aureus ATCC BAA-1717) was 1.0 and the “MIC … with Ramizol” value ([2]; Ramizol 0.03125 μg/mL, S. aureus ATCC BAA-1717) was 1 µg/mL. For the same molecule, the “FICI of combination with Ramizol” value ([2]; Ramizol 0.0625 μg/mL + labelled antibiotic at MIC of same cell, S. aureus ATCC BAA-1717) was 1.0, the “MIC … with Ramizol” value ([2]; Ramizol 0.0625 μg/mL, S. aureus ATCC BAA-1717) was 1 µg/mL and the “FICI of combination with Ramizol” value ([2]; Ramizol 0.125 μg/mL + labelled antibiotic at MIC of same line, S. aureus ATCC BAA-1717) was 1.0. For the same molecule, the “MIC … with Ramizol” value ([2]; Ramizol 0.125 μg/mL, S. aureus ATCC BAA-1717) was 1 µg/mL, the “FICI of combination with Ramizol” value ([2]; Ramizol 4 μg/mL + labelled antibiotic at MIC of same cell, S. aureus ATCC BAA-1717) was 1.0 and the “MIC … with Ramizol” value ([2]; Ramizol 4 μg/mL, S. aureus ATCC BAA-1717) was 0.031 µg/mL. The “Effect of individual antibiotic combinations” value ([2]; Ramizol and Vancomycin: 0.015625 and 1, 0.03125 and 1, 0.0625 and 1, 0.125 and 1, 4 and 0.031 μg/mL) was “additive effect”, the MIC ([2]; Staphylococcus aureus, ATCC BAA-1717 / BAA-1717, read-out: MIC of antibiotic alone) was 1 µg/mL and the “MIC of antibiotic alone” value ([2]; Table 7, checkerboard series with Ramizol, S. aureus ATCC BAA-1717) was 1 µg/mL. For the same molecule, the “mean FICI of combination with Chlopam” value ([2]; labelled antibiotic + Chlopam, mean of all pairwise combinations, S. aureus ATCC BAA-1717) was 1.2 and the “mean FICI of combination with Ramizol” value ([2]; labelled antibiotic + Ramizol, mean of all pairwise combinations, S. aureus ATCC BAA-1717) was 1.2.
